From PubChem BioAssay AID1919017 (Molecular Pharmacology Branch, DTP, NCI, 2023)

Tested on: SW1271 complex spheroids with HUVEC/MSC, growth, % test/control
Test: Anticancer human tumor SW1271 cell line growth inhibition [AhR];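 note: spheroids exposed to agents for 7 days before readout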
Settings: for IC50: curve of first compound; for viability, T/C: stronger effect = lower value
Procedure, shortened: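 Agents were dosed in half-log steps down from roughly clinical Cmax, or from 10 microM where Cmax was unknown, alone and with AhR antagonists. Read-out: percent test/control growth of tumor spheroids containing HUVEC and MSC stromal cells.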

[1] = second compound 0.1 µM, first compound 0.000949 µM
[2] = second compound 0.1 µM, first compound 0.003 µM
[3] = second compound 0.1 µM, first compound 0.00949 µM
[4] = second compound 0.1 µM, first compound 0.03 µM
[5] = second compound 0.1 µM, first compound 0.0949 µM
[6] = second compound 0.1 µM, first compound 0.3 µM
[7] = second compound 0.316 µM, first compound 0.000949 µM
[8] = second compound 0.316 µM, first compound 0.003 µM
[9] = second compound 0.316 µM, first compound 0.00949 µM
[10] = second compound 0.316 µM, first compound 0.03 µM
[11] = second compound 0.316 µM, first compound 0.0949 µM
[12] = second compound 0.316 µM, first compound 0.3 µM
[13] = second compound 1 µM, first compound 0.000949 µM
[14] = second compound 1 µM, first compound 0.003 µM
[15] = second compound 1 µM, first compound 0.00949 µM
[16] = second compound 1 µM, first compound 0.03 µM
[17] = second compound 1 µM, first compound 0.0949 µM
[18] = second compound 1 µM, first compound 0.3 µM
[19] = second compound 3.16 µM, first compound 0.000949 µM
[20] = second compound 3.16 µM, first compound 0.003 µM
[21] = second compound 3.16 µM, first compound 0.00949 µM
[22] = second compound 3.16 µM, first compound 0.03 µM
[23] = second compound 3.16 µM, first compound 0.0949 µM
[24] = second compound 3.16 µM, first compound 0.3 µM
[25] = second compound 10 µM, first compound 0.000949 µM
[26] = second compound 10 µM, first compound 0.003 µM
[27] = second compound 10 µM, first compound 0.00949 µM
[28] = second compound 10 µM, first compound 0.03 µM
[29] = second compound 10 µM, first compound 0.0949 µM
[30] = second compound 10 µM, first compound 0.3 µM

CC(C)CC(NC(=O)C(Cc1ccccc1)NC(=O)c1cnccn1)B(O)O (stereo not given) + Cc1ccccc1N=Nc1ccc(NC(=O)c2ccnn2C)c(C)c1
IC50 (second compound 0.1 µM): 5.48 nM | IC50 (second compound 0.316 µM): 5.4 nM | IC50 (second compound 1 µM): 5.73 nM | IC50 (second compound 3.16 µM): 5.73 nM | IC50 (second compound 10 µM): 6.76 nM | viability, T/C [1]: 105% | viability, T/C [2]: 97% | viability, T/C [3]: 7.2% | viability, T/C [4]: 1.26% | viability, T/C [5]: 0.41% | viability, T/C [6]: 0.31% | viability, T/C [7]: 91.4% | viability, T/C [8]: 90.3% | viability, T/C [9]: 11.3% | viability, T/C [10]: 0.73% | viability, T/C [11]: 11.2% | viability, T/C [12]: 6.11% | viability, T/C [13]: 123% | viability, T/C [14]: 101% | viability, T/C [15]: 10.2% | viability, T/C [16]: 1.95% | viability, T/C [17]: 1.1% | viability, T/C [18]: 0.56% | viability, T/C [19]: 92.9% | viability, T/C [20]: 89.4% | viability, T/C [21]: 19.4% | viability, T/C [22]: 1.27% | viability, T/C [23]: 0.6% | viability, T/C [24]: 0.68% | viability, T/C [25]: 93.1% | viability, T/C [26]: 99.5% | viability, T/C [27]: 30.8% | viability, T/C [28]: 2.17% | viability, T/C [29]: 0.87% | viability, T/C [30]: 0.59%

CCc1c2c(nc3ccc(O)cc13)-c1cc3c(c(=O)n1C2)COC(=O)[C@]3(O)CC + Cc1ccccc1N=Nc1ccc(NC(=O)c2ccnn2C)c(C)c1
IC50 (second compound 0.1 µM): 300 nM | IC50 (second compound 0.316 µM): 67.1 nM | IC50 (second compound 1 µM): 210 nM | IC50 (second compound 3.16 µM): > 300 nM | IC50 (second compound 10 µM): 78.8 nM | viability, T/C [1]: 72.5% | viability, T/C [2]: 99% | viability, T/C [3]: 64% | viability, T/C [4]: 56.2% | viability, T/C [5]: 47.7% | viability, T/C [6]: 54.7% | viability, T/C [7]: 90.9% | viability, T/C [8]: 85.4% | viability, T/C [9]: 72.4% | viability, T/C [10]: 54.2% | viability, T/C [11]: 46.4% | viability, T/C [12]: 48.7% | viability, T/C [13]: 81.7% | viability, T/C [14]: 74.3% | viability, T/C [15]: 72.5% | viability, T/C [16]: 55% | viability, T/C [17]: 59.6% | viability, T/C [18]: 46.5% | viability, T/C [19]: 79.7% | viability, T/C [20]: 85.6% | viability, T/C [21]: 77.1% | viability, T/C [22]: 63.6% | viability, T/C [23]: 54.3% | viability, T/C [24]: 52.7% | viability, T/C [25]: 82% | viability, T/C [26]: 82.7% | viability, T/C [27]: 83.9% | viability, T/C [28]: 59.6% | viability, T/C [29]: 47.5% | viability, T/C [30]: 48.9%

COc1cc(Nc2ncc3c(n2)-c2ccc(Cl)cc2C(c2c(F)cccc2OC)=NC3)ccc1C(=O)O + Cc1ccccc1N=Nc1ccc(NC(=O)c2ccnn2C)c(C)c1
IC50 (second compound 0.1 µM): > 10000 nM | IC50 (second compound 0.316 µM): > 10000 nM | IC50 (second compound 1 µM): 8760 nM | IC50 (second compound 3.16 µM): > 10000 nM | IC50 (second compound 10 µM): > 10000 nM | viability, T/C (second compound 0.1 µM, first compound 0.0316 µM): 73.8% | viability, T/C (second compound 0.1 µM, first compound 0.1 µM): 65.6% | viability, T/C (second compound 0.1 µM, first compound 0.316 µM): 77.2% | viability, T/C (second compound 0.1 µM, first compound 1 µM): 52.5% | viability, T/C (second compound 0.1 µM, first compound 3.16 µM): 61% | viability, T/C (second compound 0.1 µM, first compound 10 µM): 50.9% | viability, T/C (second compound 0.316 µM, first compound 0.0316 µM): 72.5% | viability, T/C (second compound 0.316 µM, first compound 0.1 µM): 67.1% | viability, T/C (second compound 0.316 µM, first compound 0.316 µM): 79.2% | viability, T/C (second compound 0.316 µM, first compound 1 µM): 65.9% | viability, T/C (second compound 0.316 µM, first compound 3.16 µM): 62.7% | viability, T/C (second compound 0.316 µM, first compound 10 µM): 53.2% | viability, T/C (second compound 1 µM, first compound 0.0316 µM): 81.8% | viability, T/C (second compound 1 µM, first compound 0.1 µM): 81% | viability, T/C (second compound 1 µM, first compound 0.316 µM): 74.4% | viability, T/C (second compound 1 µM, first compound 1 µM): 72% | viability, T/C (second compound 1 µM, first compound 3.16 µM): 85.5% | viability, T/C (second compound 1 µM, first compound 10 µM): 46.4% | viability, T/C (second compound 3.16 µM, first compound 0.0316 µM): 87.3% | viability, T/C (second compound 3.16 µM, first compound 0.1 µM): 72.5% | viability, T/C (second compound 3.16 µM, first compound 0.316 µM): 66% | viability, T/C (second compound 3.16 µM, first compound 1 µM): 57.9% | viability, T/C (second compound 3.16 µM, first compound 3.16 µM): 68.9% | viability, T/C (second compound 3.16 µM, first compound 10 µM): 60.2% | viability, T/C (second compound 10 µM, first compound 0.0316 µM): 65.3% | viability, T/C (second compound 10 µM, first compound 0.1 µM): 94.1% | viability, T/C (second compound 10 µM, first compound 0.316 µM): 65.7% | viability, T/C (second compound 10 µM, first compound 1 µM): 60.5% | viability, T/C (second compound 10 µM, first compound 3.16 µM): 75.8% | viability, T/C (second compound 10 µM, first compound 10 µM): 53.8%
